Legend:
Format in all cases: cell-based
[1] = tested on: Lactobacillus delbrueckii subsp. lactis; assay: Agar diffusion method, spectrum of activity; set-up: key: +, inhibition;; −, no inhibition; details: strain R 0187
Protocol: (§1) Bacteria stocks were maintained as 20% glycerol stock, at −80° C., for further use. Carnobacterium sp. and Lactococcus sp. strains were cultivated in MRS broth comprising 0.1% (vol/vol) Tween 80® in aerobic condition at 30° C., as currently known in the art. Listeria monocytogenes and Escherichia coli were grown in tryptic soy broth (TSB), supplemented with 0.6% (wt/vol) yeast extract in aerobic conditions, at 37° C., while Listeria innocua and L. ivanovii were re-cultivated in TSB with yeast extract and incubated aerobically at 30° C. Streptococcus thermophilus, Propionibacterium sp. and pediococci were activated in MRS broth at 37° C. under aerobic condition. All lactobacilli and bifidobacteria were grown in MRS broth supplemented with 0.05% (wt/vol) L-cysteine-hydrochloride and incubated anaerobically in Oxoid jars using an atmosphere generation system, at 37° C. In prior experiments, bacteria strains were sub-cultured at least three times (1%, vol/vol) in respective media at 24 h intervals.
(§2) The antibacterial activity of bacteriocin produced by C. divergens M35 was tested toward a variety of bacteria species, listed in Table 1, and belonging to genus Listeria, Lactobacillus, Streptococcus, Lactococcus, Propionibacterium and Escherichia, and was evaluated following the agar diffusion method, as is well known to those skilled in the art.

[2] = tested on: Pediococcus pentosaceus; assay: Agar diffusion method, spectrum of activity; set-up: key: +, inhibition;; −, no inhibition; details: strain R 1044
Protocol: as §1, §2

[3] = tested on: Lactococcus lactis (subsp. lactis biovar. diacetylactis); assay: Agar diffusion method, spectrum of activity; set-up: key: +, inhibition;; −, no inhibition
Protocol: as §1, §2

[4] = tested on: Lactobacillus salivarius; assay: Agar diffusion method, spectrum of activity; set-up: key: +, inhibition;; −, no inhibition; details: strain R 0078
Protocol: as §1, §2

[5] = tested on: Lactococcus lactis (subsp. lactis); assay: Agar diffusion method, spectrum of activity; set-up: key: +, inhibition;; −, no inhibition; details: strain R0058
Protocol: as §1, §2

[6] = tested on: Propionibacterium freudenreichii; assay: Agar diffusion method, spectrum of activity; set-up: key: +, inhibition;; −, no inhibition; details: strain R 0501
Protocol: as §1, §2

[7] = tested on: Bifidobacterium breve; assay: Agar diffusion method, spectrum of activity; set-up: key: +, inhibition;; −, no inhibition; details: strain ATCC 15700
Protocol: as §1, §2

[8] = tested on: Pediococcus acidilactici; assay: Agar diffusion method, spectrum of activity; set-up: key: +, inhibition;; −, no inhibition
Protocol: as §1, §2

[9] = tested on: L. ivanovii; assay: Agar diffusion method, spectrum of activity; set-up: key: +, inhibition;; −, no inhibition
Protocol: as §1, §2

[10] = tested on: Lactobacillus rhamnosus; assay: Agar diffusion method, spectrum of activity; set-up: key: +, inhibition;; −, no inhibition; details: strain R 0011
Protocol: as §1, §2

[11] = tested on: Lactobacillus acidophilus; assay: Agar diffusion method, spectrum of activity; set-up: key: +, inhibition;; −, no inhibition; details: strain R 0052
Protocol: as §1, §2

[12] = tested on: Streptococcus thermophilus; assay: Agar diffusion method, spectrum of activity; set-up: key: +, inhibition;; −, no inhibition; details: strain R 0083
Protocol: as §1, §2

[13] = tested on: Lactobacillus casei; assay: Agar diffusion method, spectrum of activity; set-up: key: +, inhibition;; −, no inhibition; details: strain R R0256
Protocol: as §1, §2

[14] = tested on: Propionibacterium sp.; assay: Agar diffusion method, spectrum of activity; set-up: key: +, inhibition;; −, no inhibition; details: strain P5
Protocol: as §1, §2

[15] = tested on: Lactobacillus plantarum; assay: Agar diffusion method, spectrum of activity; set-up: key: +, inhibition;; −, no inhibition; details: strain R 1012
Protocol: as §1, §2

[16] = tested on: L. innocua HPB13; assay: Critical-dilution micromethod (microtiter plate assay) on purification stages; details: specific activity at stage ni divided by that of the culture supernatant
Protocol: The concentrated bacteriocin was further purified by Reverse-Phase Column Liquid Chromatography (RP-HPLC) using a Beckman Gold System (Beckman Coulter Canada Inc., Mississauga, ON, Canada). Briefly, 100 μl of the concentrated bacteriocin were injected into an analytic C18 reverse-phase column (Luna 5μ, 4.6×250 mm, Phenomenex, Calif., USA). Elution was performed at a flow rate of 1 ml/min using a linear gradient from 90% solvent A (0.1% (wt/vol) trifluoroacetic acid (TFA) prepared in 5% (vol/vol) acetonitrile in water) and 10% solvent B (0.1% TFA in 100% acetonitrile) to 42 and 58% of solvents A and B, respectively, for 46 min. Peptide fractions were detected by spectrophotometry by measuring the absorbance at 220 nm and were collected manually. The fractions were concentrated using a speed-vac concentrator, dissolved in acetate buffer ([…], pH 4.0) and assayed for both bacteriocin activity by the critical-dilution micromethod, and protein content.
Protein concentration was determined as known in the art. […] Optical densities (650 nm) were then measured using a Thermo-max molecular device spectrophotometer (OPTI-Resources Inc., Quebec, PQ, Canada). […]
The biological activity of divergicin M35 was determined during the purification procedure by both agar diffusion and critical-dilution methods using L. innocua HPB 13 as indicator strain.

[17] = tested on: Carnobacterium piscicola; assay: Agar diffusion method, spectrum of activity; set-up: key to Sensitivity to divergicin M35: +, inhibition;; −, no inhibition; details: strain ATCC 386
Protocol: as §1, §2

[18] = tested on: Carnobacterium divergens; assay: Agar diffusion method, spectrum of activity; set-up: key to Sensitivity to divergicin M35: +, inhibition;; −, no inhibition; details: strain ATCC 385
Protocol: as §1, §2

[19] = tested on: L. seeligeri; assay: Agar diffusion method, spectrum of activity; set-up: key to Sensitivity to divergicin M35: +, inhibition;; −, no inhibition; details: strain LSD 11
Protocol: as §1, §2

[20] = tested on: L. grayi; assay: Agar diffusion method, spectrum of activity; set-up: key to Sensitivity to divergicin M35: +, inhibition;; −, no inhibition; details: strain LSD 13
Protocol: as §1, §2

divergicin M35: class IIa bacteriocin of 43 amino acids, 4518 Da, produced by Carnobacterium divergens strain M35 (SEQ ID NO: 1) (TKYYGNGVYCNSKKCWVDWGTAQGCIDVVIGQLGGGIPGKGKC; listed as Carnobacterium divergens)
Sensitivity to divergicin M35 [1]: − | Sensitivity to divergicin M35 [2]: − | Sensitivity to divergicin M35 ([3]; strain R 0100): − | Sensitivity to divergicin M35 ([3]; strain UL719): − | Sensitivity to divergicin M35 [4]: − | Sensitivity to divergicin M35 [5]: − | Sensitivity to divergicin M35 [6]: − | Sensitivity to divergicin M35 [7]: − | Sensitivity to divergicin M35 ([8]; strain R 1001): − | Sensitivity to divergicin M35 ([8]; strain UL 5): − | Sensitivity to divergicin M35 ([9]; strain ATCC19119): − | Sensitivity to divergicin M35 ([9]; strain HPB28): + | Sensitivity to divergicin M35 [10]: − | Sensitivity to divergicin M35 [11]: − | Sensitivity to divergicin M35 [12]: − | Sensitivity to divergicin M35 [13]: − | Sensitivity to divergicin M35 [14]: − | Sensitivity to divergicin M35 [15]: − | Increase in specific Activity (fold) [16]: 9500 fold | Diameter of inhibition zone (mm) [17]: 17.5 ± 1 mm | Sensitivity to divergicin M35 [17]: + | Diameter of inhibition zone (mm) [18]: 15.0 ± 1 mm | Sensitivity to divergicin M35 [18]: + | Diameter of inhibition zone (mm) [19]: 13.5 ± 1 mm | Sensitivity to divergicin M35 [19]: + | Diameter of inhibition zone (mm) [20]: 15.0 ± 1 mm | Sensitivity to divergicin M35 [20]: +

— patent US7247306B2, “Bacteria strain and bacteriocin produced therefrom” (Universite Laval, priority 2004, dated 2007)
